The record followed here is the supplement of paper PMC6461962.

Test [1] relates to Rhodanobacter sp. FW104-10B01. In a few lines:
(§1)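 Washed cells (final OD600 0.02, 80 µL) were added to 384-well plates of serially diluted inorganic ion salts or equimolar nitrilotriacetic acid complexes. Aerobic plates were shaken at 700 rpm at 30 °C, and anaerobic plates were left unshaken. OD600 was read at 24 h (48 h for R2A strain comparisons) and scaled between water and growth-blocking antibiotic controls, dropping wells with precipitate. IC50 came from drc R package fits of at least two biological replicate curves.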

In test [2] the test system is Pseudomonas fluorescens FW300-N2E2. In a few lines:
as §1

[3] abbreviates: medium / electron acceptor: 10B01 R2A/aerobic.
Where [4] appears, read: medium / electron acceptor: 10B01 R2A/nitrate.
Where [5] appears, read: medium / electron acceptor: N2E2 Glucose/aerobic.
Where [6] appears, read: medium / electron acceptor: N2E2 Glucose/aerobic 0.25xMinerals.
[7] abbreviates: medium / electron acceptor: N2E2 Glucose/aerobic (2).
[8] abbreviates: medium / electron acceptor: N2E2 KB/aerobic.
Setting [9] is: medium / electron acceptor: N2E2 LB/aerobic.
Setting [10] is: medium / electron acceptor: N2E2 LB/aerobic (2).
The mark [11] stands for this setting: medium / electron acceptor: N2E2 LB/nitrate.
[12] abbreviates: medium / electron acceptor: N2E2 Lactate/aerobic.
Where [13] appears, read: medium / electron acceptor: N2E2 R2A/aerobic.

For `O.O=[Te](=O)([O-])[O-].[K+].[K+]` [potassium tellurate hydrate], the IC50 growth inhibition in test [1] (setting [3]) is > 0.5 mM; in test [1] (setting [4]), > 0.5 mM; in test [2] (setting [5]) it was > 0.5 mM; in test [2] (setting [6]), 0.0753 mM; in test [2] (setting [7]), 0.444 mM; in test [2] (setting [8]) it was > 0.5 mM. The IC50 growth inhibition in test [2] (setting [9]) is > 0.5 mM; in test [2] (setting [10]), 0.377 mM; in test [2] (setting [11]) it was 0.0845 mM; in test [2] (setting [12]), 0.354 mM; in test [2] (setting [13]), > 0.5 mM.

In the case of `[Cl][Fe]([Cl])[Cl]` [Ferric chloride], the IC50 growth inhibition in test [1] (setting [3]) was > 50 mM; in test [1] (setting [4]) it was > 50 mM; in test [2] (setting [5]), > 50 mM; in test [2] (setting [6]), > 50 mM; in test [2] (setting [7]), 39.2 mM; in test [2] (setting [8]), > 50 mM. Besides, the IC50 growth inhibition in test [2] (setting [9]) is > 50 mM; in test [2] (setting [10]) it was > 50 mM; in test [2] (setting [11]), > 50 mM; in test [2] (setting [12]), 41.7 mM; in test [2] (setting [13]), 0.237 mM.

Turning to `[O-][Cl+2]([O-])O` [Sodium Chlorate], the IC50 growth inhibition is 355 mM in test [1] (setting [3]); < 0.244 mM in test [1] (setting [4]); 9.21 mM in test [2] (setting [5]); 8.75 mM in test [2] (setting [6]); 0.387 mM in test [2] (setting [7]); 5.02 mM in test [2] (setting [8]). Moreover, the IC50 growth inhibition in test [2] (setting [9]) came out at 24.5 mM; in test [2] (setting [10]), 54.4 mM; in test [2] (setting [11]), 4.33 mM; in test [2] (setting [12]), 15.7 mM; in test [2] (setting [13]), 45.9 mM.

In the case of `CC(=O)[O-].[Tl+]` [Thallium(I) acetate], the IC50 growth inhibition is > 5 mM in test [1] (setting [3]); 2.95 mM in test [1] (setting [4]); < 0.00244 mM in test [2] (setting [5]); < 0.00244 mM in test [2] (setting [6]); < 0.00244 mM in test [2] (setting [7]); < 0.00244 mM in test [2] (setting [8]). The IC50 growth inhibition in test [2] (setting [9]), in test [2] (setting [10]), in test [2] (setting [11]), in test [2] (setting [12]) and in test [2] (setting [13]) was < 0.00244 mM throughout.

Consider `O=P[O-].[Na+]` [Sodium hypophosphite monohydrate], for which the IC50 growth inhibition turned out to be 354 mM in test [1] (setting [3]); 171 mM in test [1] (setting [4]); 354 mM in test [2] (setting [5]); 451 mM in test [2] (setting [6]); 146 mM in test [2] (setting [7]); 380 mM in test [2] (setting [8]). Also, the IC50 growth inhibition in test [2] (setting [9]) was 354 mM; in test [2] (setting [10]), > 500 mM; in test [2] (setting [11]), 306 mM; in test [2] (setting [12]) it was 354 mM; in test [2] (setting [13]) it was > 500 mM.

On to `OB1OB2OB(O)OB(O1)O2` [sodium tetraborate decahydrate], for which the IC50 growth inhibition in test [1] (setting [3]), in test [1] (setting [4]), in test [2] (setting [5]), in test [2] (setting [6]), in test [2] (setting [7]) and in test [2] (setting [8]) was > 5 mM throughout. Besides, the IC50 growth inhibition in test [2] (setting [9]) was > 5 mM; in test [2] (setting [10]), > 5 mM; in test [2] (setting [11]), 3.16 mM; in test [2] (setting [12]) it was > 5 mM; in test [2] (setting [13]), > 5 mM.

As for `O=P(O)(O)OP(=O)(O)O` [Sodium pyrophosphate dibasic], the IC50 growth inhibition in test [1] (setting [3]) worked out at 8.54 mM; in test [1] (setting [4]), 0.854 mM; in test [2] (setting [5]) it was 29.4 mM; in test [2] (setting [6]) it was 0.848 mM; in test [2] (setting [7]), 0.226 mM; in test [2] (setting [8]), 1.78 mM. The IC50 growth inhibition in test [2] (setting [9]) is 36.1 mM; in test [2] (setting [10]), 25.4 mM; in test [2] (setting [11]), 4.34 mM; in test [2] (setting [12]) it was > 50 mM; in test [2] (setting [13]), 2.35 mM.

With `O.O.O.O.O.[Cd+2].[Cd+2].[Cl-].[Cl-].[Cl-].[Cl-]` [Cadmium chloride hemipentahydrate], the IC50 growth inhibition in test [1] (setting [3]) was 0.11 mM; in test [1] (setting [4]) it was 0.189 mM; in test [2] (setting [5]), < 0.00244 mM; in test [2] (setting [6]) it was < 0.00244 mM; in test [2] (setting [7]) it was < 0.00244 mM; in test [2] (setting [8]), 0.117 mM. The IC50 growth inhibition in test [2] (setting [9]) was 0.141 mM; in test [2] (setting [10]), 0.0516 mM; in test [2] (setting [11]), 0.111 mM; in test [2] (setting [12]) it was < 0.00244 mM; in test [2] (setting [13]), 0.014 mM.

Regarding `O.O.O.O.O.O.[Cl-].[Cl-].[Co+2]` [Cobalt chloride hexahydrate], the IC50 growth inhibition was 0.592 mM in test [1] (setting [3]); 0.484 mM in test [1] (setting [4]); < 0.00244 mM in test [2] (setting [5]); < 0.00244 mM in test [2] (setting [6]); < 0.00244 mM in test [2] (setting [7]); 0.0208 mM in test [2] (setting [8]). For the same compound, the IC50 growth inhibition in test [2] (setting [9]) is 0.175 mM; in test [2] (setting [10]) it was 0.0867 mM; in test [2] (setting [11]) it was > 5 mM; in test [2] (setting [12]), 0.00741 mM; in test [2] (setting [13]), 0.0138 mM.

As for `[F-].[Na+]` [sodium fluoride], the IC50 growth inhibition is 354 mM in test [1] (setting [3]); 11.6 mM in test [1] (setting [4]); < 0.244 mM in test [2] (setting [5]); < 0.244 mM in test [2] (setting [6]); < 0.244 mM in test [2] (setting [7]); 0.322 mM in test [2] (setting [8]). Further, the IC50 growth inhibition in test [2] (setting [9]) is 1.11 mM; in test [2] (setting [10]), 1.1 mM; in test [2] (setting [11]), 0.497 mM; in test [2] (setting [12]), 0.477 mM; in test [2] (setting [13]), 2.9 mM.

Turning to `O.[Cl-].[Li+]` [Lithium chloride hydrate], the IC50 growth inhibition in test [1] (setting [3]) is 15.6 mM; in test [1] (setting [4]) it was 98.7 mM; in test [2] (setting [5]), 349 mM; in test [2] (setting [6]), > 500 mM; in test [2] (setting [7]) it was 33.9 mM; in test [2] (setting [8]), 325 mM. The IC50 growth inhibition in test [2] (setting [9]) was 354 mM; in test [2] (setting [10]), 354 mM; in test [2] (setting [11]) it was 263 mM; in test [2] (setting [12]), 321 mM; in test [2] (setting [13]), 176 mM.

As to `O.O.[Cl][Cu][Cl]` [copper (II) chloride dihydrate], the IC50 growth inhibition is > 5 mM in test [1] (setting [3]); > 5 mM in test [1] (setting [4]); 0.0767 mM in test [2] (setting [5]); 0.0767 mM in test [2] (setting [6]); 0.0767 mM in test [2] (setting [7]); > 5 mM in test [2] (setting [8]). Further, the IC50 growth inhibition in test [2] (setting [9]) was > 5 mM; in test [2] (setting [10]) it was > 5 mM; in test [2] (setting [11]), > 5 mM; in test [2] (setting [12]) it was 0.0767 mM; in test [2] (setting [13]), 0.525 mM.
